According to patent US20190345138A1, “HETEROCYCLIC AMIDES AS KINASE INHIBITORS” (GlaxoSmithKline Intellectual Property Development Limited, priority 2016, published 2019):
“Also recorded” adds a separate entry of the source.

What was measured:
[1] = system: Diet-induced obese, male mice C57Bl/6J; assay: obesity, high fat diet-fed mice; type: in vivo, mouse
Excerpt: Inflammation is known to be a contributing factor in the pathogenesis of diabetes and obesity (Chen. et. al., International Journal of Endocrinology (2015)). We therefore explored the effect of blocking RIPK1 kinase activity on body weight in mice made obese by chronic feeding of a high fat diet (HFD). Diet-induced obese, male mice C57Bl/6J (Jackson Labs Stock#380050) arrived at 22 weeks of age, with average body weight of 40 g and acclimated for one week and maintained on HFD. Mice were then acclimated to oral gavage with water for 7 days before study start. Thereafter mice received RIPK 1 inhibitor (50 mg/kg, bid, n=9) or vehicle (bid, n=9) for 19 days. Food intake was measured twice weekly and body weight was measured daily throughout the study.

[2] = system: Sharpin-deficient mice (cpdm); assay: Sharpin-deficient mouse model of TNF-dependent dermatitis; type: in vivo; details: food-based 100 or 10 mg/kg/day
Description: Sharpin-deficient mice (cpdm) develop a spontaneous and severe TNF- and RIPK1-dependent dermatitis and multi-organ immunopathology around 6-8 weeks of age (S. B. Berger et al., Journal of Immunology, 192(12):5476-5480, (2014)). Mice were dosed with RIP1 inhibitors at the time of weaning (3-4 weeks of age) prior to the development of dermatitis lesions or therapeutically after the development of dermatitis lesions (about 6 weeks of age) using a food-based dosing regimen, such that mice (4-7 mice per group) received on average 100 mg/kg/day or 10 mg/kg/day of RIP1 inhibitor in diet or control diet. […] The character of the lesion was categorized according the following, in order of increasing severity, 0=none, 1=excoriation only or one small punctuated crust (≤2 mm), 2=multiple, small punctuate crusts or coalescing crust (>2 mm), 3=erosion or ulceration. The regions were identified as: Region 1: the head cranial to the medial pinna attachment and/or lesions affecting the mandible cranial to the sternum, Region 2: inner and outer pinna, dorsal cervical region caudal to the medial pinna attachment, dorsal and ventral thorax, and thoracic limbs, Region 3: any region caudal to the ribcage. A score for the regions affected was categorized per the following: 0=none; 1=Region 2 or 3; 2=Region 2 and 3; 3=Region 1+/−other affected regions. […]

B16BL6 (melanoma) = assay: syngeneic subcutaneous tumor model B16BL6; type: in vivo, mouse; details: RIP1i = Example 78 40 mg/kg p.o. BID, alone or with anti-PD1
Description: (§1) The efficacy of RIP1 inhibition was tested in 12 different murine (6-8 week old) syngeneic subcutaenous tumor models. RIP1 inhibition was tested as a single agent in all models, with anti-PD1 combination arms added to the five of the final models.
(§2) T and C are the mean tumor volume of the treated and control groups, respectively, on a given day. • 2) Tumor and plasma collection at study end for further investigation.
(§3) The 12 syngenic cell lines were maintained in vitro with different medium (indicated in Table C) at 37° C. in an atmosphere of 5% CO2 in air. The tumor cells were routinely subcultured twice weekly. The cells in an exponential growth phase were harvested and counted for tumor inoculation.
(§4) Each mouse was inoculated subcutaneously with tumor cells in 0.1 mL of PBS for tumor development. The treatments were started when the mean tumor size reached approximately 80-120 mm^3 (around 100 mm^3).

RM-1(prostate) = assay: syngeneic subcutaneous tumor model RM-1; type: in vivo, mouse; details: RIP1i = Example 78 40 mg/kg p.o. BID, alone or with anti-PD1
Description: as §1, §2, §3, §4

MC38 (colon) = assay: syngeneic subcutaneous tumor model MC38; type: in vivo, mouse; details: RIP1i = Example 78 40 mg/kg p.o. BID, alone or with anti-PD1
Description: as §1, §2, §3, §4

EMT-6 (breast) = assay: syngeneic subcutaneous tumor model EMT-6; type: in vivo, mouse; details: RIP1i = Example 78 40 mg/kg p.o. BID x up to 21 days
Description: as §1, §2, §3, §4

H22 (hepatoma) = assay: syngeneic subcutaneous tumor model H-22; type: in vivo, mouse; details: RIP1i = Example 78 40 mg/kg p.o. BID x up to 21 days
Description: as §1, §2, §3, §4

LL/2 (Lewis lung) = assay: syngeneic subcutaneous tumor model LL/2; type: in vivo, mouse; details: RIP1i = Example 78 40 mg/kg p.o. BID x up to 21 days
Description: as §1, §2, §3, §4

CT26 (colon) = assay: syngeneic subcutaneous tumor model CT-26; type: in vivo, mouse; details: RIP1i = Example 78 40 mg/kg p.o. BID x up to 21 days
Description: as §1, §2, §3, §4

A20 (B lymphoma) = assay: syngeneic subcutaneous tumor model A20; type: in vivo, mouse; details: RIP1i = Example 78 40 mg/kg p.o. BID x up to 21 days
Description: as §1, §2, §3, §4

Renca (renal) = assay: syngeneic subcutaneous tumor model Renca; type: in vivo, mouse; details: RIP1i = Example 78 40 mg/kg p.o. BID x up to 21 days
Description: as §1, §2, §3, §4

db/db mice = assay: glucose homeostasis in db/db mice; type: in vivo, mouse; details: 100 mg/kg/day in chow
Excerpt: We therefore investigated the ability of our small molecule RIPK1 inhibitor to improve glucose homeostasis in a diabetic animal model. Mice genetically deficient for the leptin receptor (db/db mice; Jackson Labs, BKS.Cg-Dock7m+/+Leprdb/J) are a widely used animal model of insulin resistance and diabetes. In our study, 4-week old male db/db mice were acclimated for a period of one week. At this point, when the mice were 5 weeks of age, the study was started. Mice were then divided into two group (n=10/group) and baseline measurements of non-fasted blood glucoses (using a glucometer) and body weight were taken. After baseline measurements, one group of mice was fed chow containing RIPK1 inhibitor (100 mg/kg/day, n=10) and the other remained on normal chow (n=10). Animals remained on these diets for 6 weeks. Additional measurements of non-fasted blood glucose and body weight were taken 2 and 4 weeks after study start. At week 8, mice were fasted overnight (16 hours) and fasted blood glucose and body weight were measured on the following day.

MBT2 (bladder) = assay: syngeneic subcutaneous tumor model MBT2; type: in vivo, mouse; details: RIP1i = Example 78 40 mg/kg p.o. BID, alone or with anti-PD1
Description: as §1, §2, §3, §4

B16F10 (melanoma) = assay: syngeneic subcutaneous tumor model B16F10; type: in vivo, mouse; details: RIP1i = Example 78 40 mg/kg p.o. BID x up to 21 days
Description: as §1, §2, §3, §4

Pan02 (pancreatic) = assay: syngeneic subcutaneous tumor model Pan02; type: in vivo, mouse; details: Pan02, PG21; RIP1i = Example 78 40 mg/kg p.o. BID, alone or with anti-PD1
Description: as §1, §2, §3, §4

N#Cc1cc(N2CCC(C(=O)N3N=CC[C@H]3c3cc(F)cc(F)c3)CC2)ncn1 [Example 78, (S)-6-(4-(5-(3,5-difluorophenyl)-4,5-dihydro-1H-pyrazole-1-carbonyl)piperidin-1-yl)pyrimidine-4-carbonitrile]
body weight ([1]; 50 mg/kg bid PO for 19 days, versus vehicle): did not gain weight | food intake ([1]; 50 mg/kg bid PO, day 2 and day 5, versus vehicle): initially reduced their food intake | development of severe dermatitis ([2]; pre-dosing from weaning (3-4 weeks of age)): complete protection from the development of severe dermatitis | established dermatitis ([2]; therapeutic dosing after development of lesions (about 6 weeks of age)): rescued established dermatitis | Mean tumor growth inhibition (TGI) at model termination (B16BL6 (melanoma)): 16% | Mean tumor growth inhibition (TGI) at model termination (RM-1(prostate)): −8% | Mean tumor growth inhibition (TGI) at model termination (MC38 (colon)): −16% | Mean tumor growth inhibition (TGI) at model termination (EMT-6 (breast)): 21% | Mean tumor growth inhibition (TGI) at model termination (H22 (hepatoma)): 19% | Mean tumor growth inhibition (TGI) at model termination (LL/2 (Lewis lung)): 22% | Mean tumor growth inhibition (TGI) at model termination (CT26 (colon)): 19% | Mean tumor growth inhibition (TGI) at model termination (A20 (B lymphoma)): 0.6% | Mean tumor growth inhibition (TGI) at model termination (Renca (renal)): 19% | fasted blood glucose (db/db mice; week 8, fasted overnight (16 hours), versus normal chow): improves fasted blood glucose; also recorded: significantly lower | non-fasted (fed) blood glucose (db/db mice; weeks 2 and 4, versus normal chow): improves fed blood glucose over time; also recorded: Reduced non-fasted blood glucose at weeks 2 and 4 | Mean tumor growth inhibition (TGI) at model termination (MBT2 (bladder)): −4% | Mean tumor growth inhibition (TGI) at model termination (B16F10 (melanoma)): 20% | Mean tumor growth inhibition (TGI) at model termination (Pan02 (pancreatic)): PG21: 46%
